The structures appear in SMILES notation.

The test system of one data set is mice. Description: Toxicity: survival/mortality of mice after intravenous administration or injections. The conditions noted are these: three injections of 12.5 mg/kg/day; result in words. Type of data set: in vivo.
Assay in data set [1]: as above
Procedure: Several toxicity measurements are carried out with suspensions of particles obtained by this process.
The conditions noted are these: mouse, in vivo; intravenous, three successive doses of 10 mg/kg/day; read-out: mice that do not survive for 15 days. The class given is in vivo.

Take `COc1cccc2c1C(=O)c1c(O)c3c(c(O)c1C2=O)C[C@@](O)(C(=O)CO)C[C@@H]3O[C@H]1C[C@H](N)[C@H](O)[C@H](C)O1` [doxorubicin]: the mice that survive result in the data set on mice is “none of the mice survives”. In addition, the mortality at 360 h in data set [1] came to 27.5%.

These data come from patent publication US4913908A, “Preparation of submicroscopic particles, particles thus obtained and pharmaceutical compositions containing them” (N. V. Sopar S.A., priority 1981, dated 1990).
